Results from US20150152395A1, “CHIMERIC LUCIFERASES” (Connecticut College, priority 2012, published 2015).

Tests used:
Experiment in all cases: Steady-state kinetic constants, bioluminescence activity
[1] = molecular target: T1, Photinus pyralis luciferase variant Ppy RE13, Ppy RE9 (SEQ ID NO: 20) with Ile457Val/Arg465Phe/Ala482Gly/His489Lys/Ala503Asn/Lys543Gln, SEQ ID NO: 16 (Photinus pyralis, UniProt P08659, A215L/A482G/A503N/E354I/F295L/H489K/I232A/I351V/I457V/K543Q/R330G/S284T/T214A); format: biochemical
T1 construct: N-terminal GPLGS; pGEX-6P-2 GST fusion (tag cleaved), E. coli BL21

[2] = molecular target: T2, Native Ppy, native firefly luciferase from Photinus pyralis (Photinus pyralis, UniProt P08659); format: biochemical
T2 construct: wild type, no tag

[3] = system: PpyLit (chimeric luciferase, SEQ ID NO: 8) variant F465R; format: biochemical, Photinus pyralis / Luciola italica
Method: (§1) Reactions were initiated by injection of solutions of the substrate being maintained at saturating concentration. Kinetic constants were determined using a nonlinear least squares method of the Enzyme Kinetics Pro software (SynTex), which fits data from the Michalis-Menten equation to a rectangular hyperbola. The corresponding kcat values were obtained by dividing the Vmax values by the amount (μmol) of each luciferase in the assay mixtures.

[4] = system: PpyLit (chimeric luciferase, SEQ ID NO: 8) variant I351V/E354K; format: biochemical, Photinus pyralis / Luciola italica
Method: as §1

[5] = system: PpyLit (chimeric luciferase, SEQ ID NO: 8) variant S284T; format: biochemical, Photinus pyralis / Luciola italica
Method: as §1

[6] = system: PpyLit (chimeric luciferase, SEQ ID NO: 8) variant S284T/I351V/E354K; format: biochemical, Photinus pyralis / Luciola italica
Method: as §1

[7] = system: Ppy RE-TSLit, chimeric luciferase of Ppy RE-TS N-domain and LitWT C-domain; format: biochemical, Photinus pyralis / Luciola italica
Method: as §1

[8] = system: Ppy GR-TSLit, chimeric luciferase of Ppy GR-TS N-domain and LitWT C-domain; format: biochemical, Photinus pyralis / Luciola italica
Method: as §1

[9] = system: PpyLit (chimeric luciferase, SEQ ID NO: 8) variant I232A/I351V/E354K; format: biochemical, Photinus pyralis / Luciola italica
Method: as §1

[10] = system: PpyLit (chimeric luciferase, SEQ ID NO: 8) variant S284T/F465R; format: biochemical, Photinus pyralis / Luciola italica
Method: as §1

[11] = system: PpyLit (chimeric luciferase, SEQ ID NO: 8) variant I351V/E354K/F465R; format: biochemical, Photinus pyralis / Luciola italica
Method: as §1

[12] = system: PpyLit, chimeric luciferase of PpyWT residues 1-439 and LitWT residues 440-550, SEQ ID NO: 8; format: biochemical, Photinus pyralis / Luciola italica
Method: as §1

[13] = system: PpyLit (chimeric luciferase, SEQ ID NO: 8) variant I232A/E354K; format: biochemical, Photinus pyralis / Luciola italica
Method: as §1

[14] = molecular target: T3, Photinus pyralis luciferase PpyWT variant Ppy14, Ala450Pro/Ile457Val/Leu472Val/Asp475Ser/Asp476Glu/Ala482Gly/Leu487Met/His489Lys/Ala503Asn/Thr507Val/Thr508Asn/A (Photinus pyralis, UniProt P08659, A450P/A482G/A503N/A509H/D475S/D476E/H489K/I457V/K511R/L472V/L487M/T507V/T508N/V517R); format: biochemical
T3 construct: N-terminal GPLGS; pGEX-6P-2 GST fusion (tag cleaved), E. coli BL21

[15] = molecular target: T4, Photinus pyralis luciferase variant Ppy RE-TS5/I351V, PpyRE-TS (SEQ ID NO: 24) with Ile457Val/Ala482Gly/His489Lys/Ala503Asn/Lys543Gln/Ile351Val, SEQ ID NO: 14 (Photinus pyralis, UniProt P08659, A215L/A482G/A503N/E354K/F295L/H489K/I232A/I351V/I457V/K543Q/S284T/T214A); format: biochemical
T4 construct: N-terminal GPLGS; pGEX-6P-2 GST fusion (tag cleaved), E. coli BL21

[16] = molecular target: T5, 6×His-PpyWT, Photinus pyralis luciferase PpyWT with N-terminal peptide MRGSHHHHHHGS (SEQ ID NO: 27) in place of GPLGS (Photinus pyralis, UniProt P08659); format: biochemical
T5 construct: pQE-30, E. coli; Ni-NTA purified

[17] = molecular target: Photinus pyralis luciferase, recombinant wild type (PpyWT), SEQ ID NO: 4, with N-terminal peptide GPLGS (Photinus pyralis, UniProt P08659); format: biochemical
[18] = system: LitPpy, chimeric luciferase of LitWT residues 1-439 and PpyWT residues 440-550; format: biochemical, Luciola italica / Photinus pyralis
Method: as §1

[19] = read-out: Km Mg-ATP, pH 7.8, LH2 saturating
[20] = pH 7.8, LH2 saturating, read-out: Km Mg-ATP

T5 sequence (P08659 whole entry): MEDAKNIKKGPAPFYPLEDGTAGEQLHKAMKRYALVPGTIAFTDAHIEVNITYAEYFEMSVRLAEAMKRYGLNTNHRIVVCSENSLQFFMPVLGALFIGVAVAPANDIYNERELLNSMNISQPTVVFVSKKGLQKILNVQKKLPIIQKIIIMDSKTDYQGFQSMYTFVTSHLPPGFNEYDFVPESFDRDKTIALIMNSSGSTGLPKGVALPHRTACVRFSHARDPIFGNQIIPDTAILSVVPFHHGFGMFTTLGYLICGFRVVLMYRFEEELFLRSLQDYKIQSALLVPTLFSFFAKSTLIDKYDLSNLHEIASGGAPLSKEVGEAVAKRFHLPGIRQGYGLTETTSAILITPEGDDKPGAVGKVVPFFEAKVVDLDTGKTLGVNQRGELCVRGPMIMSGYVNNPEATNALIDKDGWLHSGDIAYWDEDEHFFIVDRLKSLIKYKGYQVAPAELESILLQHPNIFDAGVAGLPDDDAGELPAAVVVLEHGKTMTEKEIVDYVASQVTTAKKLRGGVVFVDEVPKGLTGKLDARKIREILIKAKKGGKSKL
T2 sequence (P08659 whole entry): as above
Photinus pyralis luciferase, recombinant wild type (PpyWT), SEQ ID NO: 4, with N-terminal peptide GPLGS, sequence (P08659 whole entry, the tested form may be a part): as the sequence (P08659 whole entry) above
T1 sequence (P08659 whole entry T214A/A215L/I232A/S284T/F295L/R330G/I351V/E354I/I457V/A482G/H489K/A503N/K543Q, the tested form may be a part): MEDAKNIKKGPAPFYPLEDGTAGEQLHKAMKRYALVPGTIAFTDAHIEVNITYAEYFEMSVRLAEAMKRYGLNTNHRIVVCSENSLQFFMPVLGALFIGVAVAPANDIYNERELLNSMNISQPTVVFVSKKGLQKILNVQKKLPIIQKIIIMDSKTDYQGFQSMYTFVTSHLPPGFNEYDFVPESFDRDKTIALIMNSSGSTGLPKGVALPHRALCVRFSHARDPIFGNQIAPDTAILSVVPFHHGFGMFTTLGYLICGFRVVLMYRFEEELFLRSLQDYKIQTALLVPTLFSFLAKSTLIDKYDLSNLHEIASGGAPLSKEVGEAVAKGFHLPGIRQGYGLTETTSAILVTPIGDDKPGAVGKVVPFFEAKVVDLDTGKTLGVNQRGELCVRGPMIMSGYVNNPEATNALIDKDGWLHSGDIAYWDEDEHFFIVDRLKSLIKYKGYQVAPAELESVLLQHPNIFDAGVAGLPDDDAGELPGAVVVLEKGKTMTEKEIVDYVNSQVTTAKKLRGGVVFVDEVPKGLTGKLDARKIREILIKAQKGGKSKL
T3 sequence (P08659 whole entry A450P/I457V/L472V/D475S/D476E/A482G/L487M/H489K/A503N/T507V/T508N/A509H/K511R/V517R, the tested form may be a part): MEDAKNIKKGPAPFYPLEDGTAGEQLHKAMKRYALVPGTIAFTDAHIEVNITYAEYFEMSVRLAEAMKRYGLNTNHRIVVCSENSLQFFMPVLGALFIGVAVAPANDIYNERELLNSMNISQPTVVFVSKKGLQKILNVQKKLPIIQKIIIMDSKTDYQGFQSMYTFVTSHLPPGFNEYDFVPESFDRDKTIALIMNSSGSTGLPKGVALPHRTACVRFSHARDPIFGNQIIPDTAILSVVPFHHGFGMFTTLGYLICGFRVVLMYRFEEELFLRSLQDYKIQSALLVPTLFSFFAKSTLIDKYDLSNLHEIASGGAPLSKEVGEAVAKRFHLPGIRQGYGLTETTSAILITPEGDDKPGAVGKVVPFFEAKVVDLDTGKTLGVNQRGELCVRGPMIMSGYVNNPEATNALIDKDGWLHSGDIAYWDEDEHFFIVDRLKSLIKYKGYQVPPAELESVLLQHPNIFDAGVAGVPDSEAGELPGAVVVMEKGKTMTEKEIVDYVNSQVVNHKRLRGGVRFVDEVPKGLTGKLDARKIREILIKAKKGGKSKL
T4 sequence (P08659 whole entry T214A/A215L/I232A/S284T/F295L/I351V/E354K/I457V/A482G/H489K/A503N/K543Q, the tested form may be a part): as the sequence (P08659 whole entry T214A/A215L/I232A/S284T/F295L/R330G/I351V/E354I/I457V/A482G/H489K/A503N/K543Q, the tested form may be a part) above, with G330R, I354K counted along it

`Nc1ncnc2c1ncn2[C@@H]1O[C@H](COP(=O)(O)OP(=O)(O)OP(=O)(O)O)[C@@H](O)[C@H]1O` [Mg-ATP] was tested, and the kcat/Km ([1]; kcat divided by Mg-ATP Km) was 380 ± 100 M⁻¹ s⁻¹, the Km [1, 19] was 289 ± 20 µM and the kcat/Km ([2]; kcat divided by Mg-ATP Km) was 1890 ± 130 M⁻¹ s⁻¹. It also gave a Km [2, 20] of 90 ± 10 µM, a kcat/Km ([3]; kcat divided by Mg-ATP Km) of 3430 ± 100 M⁻¹ s⁻¹ and a Km [3, 20] of 99 ± 6 µM. It also gave a kcat/Km ([4]; kcat divided by Mg-ATP Km) of 3750 ± 150 M⁻¹ s⁻¹, a Km [4, 20] of 80 ± 10 µM and a kcat/Km ([5]; kcat divided by Mg-ATP Km) of 1120 ± 150 M⁻¹ s⁻¹. It also gave a Km [5, 20] of 89 ± 10 µM, a kcat/Km ([6]; kcat divided by Mg-ATP Km) of 1360 ± 140 M⁻¹ s⁻¹ and a Km [6, 20] of 95 ± 9 µM. It also gave a kcat/Km ([7]; kcat divided by Mg-ATP Km) of 1130 ± 120 M⁻¹ s⁻¹, a Km [7, 20] of 79 ± 9 µM and a kcat/Km ([8]; kcat divided by Mg-ATP Km) of 170 ± 70 M⁻¹ s⁻¹. It also gave a Km [8, 20] of 466 ± 36 µM, a kcat/Km ([9]; kcat divided by Mg-ATP Km) of 1860 ± 120 M⁻¹ s⁻¹ and a Km [9, 20] of 129 ± 14 µM. The kcat/Km ([10]; kcat divided by Mg-ATP Km) was 1670 ± 140 M⁻¹ s⁻¹, the Km [10, 20] was 60 ± 6 µM and the kcat/Km ([11]; kcat divided by Mg-ATP Km) was 3090 ± 90 M⁻¹ s⁻¹. The Km [11, 20] was 94 ± 8 µM, the “enhanced catalytic efficiency (kcat/Km ATP)” value ([12]; compared to PpyWT) was 2.9 fold and the kcat/Km ([12]; kcat divided by Mg-ATP Km) was 6040 ± 120 M⁻¹ s⁻¹. It also gave a Km [12, 20] of 53 ± 5 µM, a kcat/Km ([13]; kcat divided by Mg-ATP Km) of 3290 ± 100 M⁻¹ s⁻¹ and a Km [13, 20] of 76 ± 4 µM. For the same compound, the kcat/Km ([14]; kcat divided by Mg-ATP Km) was 6340 ± 110 M⁻¹ s⁻¹, the Km [14, 19] was 41 ± 3 µM and the kcat/Km ([15]; kcat divided by Mg-ATP Km) was 1290 ± 140 M⁻¹ s⁻¹. For the same compound, the Km [15, 19] was 93 ± 19 µM, the kcat/Km ([16]; kcat divided by Mg-ATP Km) was 1930 ± 110 M⁻¹ s⁻¹ and the Km [16, 20] was 93 ± 9 µM. The kcat/Km ([17]; kcat divided by Mg-ATP Km) was 2090 ± 100 M⁻¹ s⁻¹, the Km [17, 20] was 86 ± 7 µM and the kcat/Km ([18]; kcat divided by Mg-ATP Km) was 1180 ± 60 M⁻¹ s⁻¹. For the same compound, the Km [18, 20] was 188 ± 10 µM.
